Reference: the supplement of paper PMC10307832

Experiments:
Experiment in all cases: relative viability (nuclei count vs DMSO), 5 days (fraction); higher = more cells survive
[1] = compound: C1CC(C2=C(C1)C3=C(N2)C=CC(=C3)Cl)C(=O)N [Selisistat] + COc1cccc2cc(-c3nc([C@H]4CC[C@H](C(=O)O)CC4)n4ncnc(N)c34)[nH]c12 [OSI-027] (partner 0.5 µM)
Method in brief: (§1)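 After 5 days of treatment, lung cancer cells in 1536-well plates were fixed and stained in a single step (final 0.05% Triton X-100, 1% formaldehyde, 1 ug/ml Hoechst) and their nuclei counted on 4× images. Treatment had been applied by pin tool the day after seeding as one drug alone or as a fixed anchor-drug dose with five library-drug doses (not always all listed) in √10 steps. Relative viability is the nuclei count of treated wells divided by that of vehicle wells, and values are medians of duplicate plates.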

[2] = compound: C1CC(C2=C(C1)C3=C(N2)C=CC(=C3)Cl)C(=O)N [Selisistat] + O=C(CCCCCCC(=O)Nc1ccccc1)NO [Vorinostat] (partner 1 µM)
Method in brief: as §1

[3] = compound: c1ccc2c(CCNc3ccc(Nc4ccncc4)cc3)c[nH]c2c1 [Serdemetan] + CC1(C)CCC(c2ccc(Cl)cc2)=C(CN2CCN(c3ccc(C(=O)NS(=O)(=O)c4ccc(N[C@H](CCN5CCOCC5)CSc5ccccc5)c(S(=O)(=O)C(F)(F)F)c4)cc3)CC2)C1 [Navitoclax] (partner 0.5 µM)
Method in brief: as §1

[4] = compound: c1ccc2c(CCNc3ccc(Nc4ccncc4)cc3)c[nH]c2c1 [Serdemetan] + C[C@]1(O)C[C@@H](c2nc(-c3ccc4ccc(-c5ccccc5)nc4c3)c3c(N)nccn32)C1 [Linsitinib] (partner 1 µM)
Method in brief: as §1

Cell Line	relative viability ([1]; first compound 0.4 µM)	relative viability ([1]; first compound 1.265 µM)	relative viability ([1]; first compound 4 µM)	relative viability ([1]; first compound 12.65 µM)	relative viability ([1]; first compound 40 µM)	relative viability ([2]; first compound 0.4 µM)	relative viability ([2]; first compound 1.265 µM)	relative viability ([2]; first compound 4 µM)	relative viability ([2]; first compound 12.65 µM)	relative viability ([2]; first compound 40 µM)	relative viability ([3]; first compound 0.04 µM)	relative viability ([3]; first compound 0.1265 µM)	relative viability ([3]; first compound 1.265 µM)	relative viability ([3]; first compound 4 µM)	relative viability ([4]; first compound 0.04 µM)	relative viability ([4]; first compound 0.1265 µM)	relative viability ([4]; first compound 1.265 µM)	relative viability ([4]; first compound 4 µM)	relative viability ([3]; first compound 0.4 µM)	relative viability ([4]; first compound 0.4 µM)
LOU-NH91	0.814	0.715	0.675	0.756	0.708	0.962	0.919	0.824	0.835	0.959	0.696	0.74	0.534	0.581	0.962	1.01	0.894	0.83	–	–
LU99A	0.345	0.283	0.344	0.288	0.297	0.514	0.5	0.6	0.51	0.558	0.803	0.842	0.251	0.26	0.501	0.481	0.158	0.162	0.712	0.421
LXF-289	0.797	0.806	0.667	0.788	0.838	0.78	0.83	0.753	0.799	0.961	0.931	0.927	0.759	0.749	0.953	0.95	0.785	0.765	0.884	0.863
NCI-H23	0.56	0.602	0.508	0.529	0.605	0.647	0.597	–	0.663	0.802	0.887	0.848	0.809	0.623	0.571	0.684	0.504	0.561	0.996	0.747
